Data on ten compounds can be found in US11965039B2, “Compstatin analogues and their medical uses” (priority 2018, dated 2024).

The structures appear in SMILES notation. Starred links: 1 amine or outer side, 2 acyl side, 3 side chain; linkers in the order of their positions; H or OH if unused. Positions of bridges follow the written chain, without caps; N, C: chain ends. Non-standard residues stand in square brackets, D forms with d. Residues, ends and D or L forms follow the SMILES beside them. Groups on a side chain read outwards from the residue. *: point of attachment. Trp(1-Me) = Cn1cc(C[C@H](N)C(=O)O)c2ccccc21; C18 diacid = O=C(O)CCCCCCCCCCCCCCCCC(=O)*; C16 diacid = O=C(O)CCCCCCCCCCCCCCC(=O)*; γGlu = O=C(O)[C@H](CCC(=O)[*:2])N[*:1]; AEEA = NCCOCCOCC(=O)O; Aoc = NCCCCCCCC(=O)O; Sar = CNCC(=O)O

In general, IC50 refers to the concentration at which inhibition is half-maximal.

This assay concerns classical complement pathway. Briefly: In vitro haemolysis assay (inhibition of classical complement pathway). It is filed as cell-based, human. The following applies: human serum, sensitized sheep red blood cells; Table 3, given as upper bounds; read-out: IC50, inhibition of hemolysis. The method in brief: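 Compound dilutions preincubated 15 min at room temperature with diluted human serum (titrated per batch for 70-90% maximal haemolysis), then antibody-sensitized sheep RBC (10^7/well) added for 30 min at 37 °C in Tris/casein buffer, pH 7.4. Stopped with EDTA; haemolysis read at 405 nm; IC50 by 4PL fit.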
`CC[C@H](C)[C@H](NC(=O)[C@H](C)NC(=O)[C@H](CO)NC(=O)[C@H](CO)NC(=O)[C@H](CCC(=O)O)NC(C)=O)C(=O)N[C@H]1CSSC[C@@H](C(=O)N[C@H](C(N)=O)[C@@H](C)O)NC(=O)[C@H](CCCNC(=N)N)NC(=O)[C@H](Cc2c[nH]cn2)NC(=O)[C@H](C)NC(=O)CNC(=O)[C@H](Cc2c[nH]c3ccccc23)NC(=O)[C@H](CC(=O)O)NC(=O)[C@H](CCC(N)=O)NC(=O)[C@H](Cc2c[nH]c3ccccc23)NC(=O)[C@H]([C@@H](C)CC)NC1=O` [Compound 46] (Ac-ESSAICIWQDWGAHRCT-NH2; disulfide 6-16): the IC50 is less than 0.1 µM.
In the case of `CC[C@H](C)[C@@H]1NC(=O)[C@@H](NC(=O)[C@H](Cc2ccccc2)NC(=O)[C@H](CCC(=O)O)NC(=O)[C@H](CO)NC(C)=O)CSSC[C@@H](C(=O)N(C)CC(=O)N[C@@H](CCC(=O)O)C(=O)NCC(=O)N[C@@H](CCC(=O)O)C(=O)N[C@@H](CO)C(=O)N[C@@H](CCC(=O)O)C(=O)N[C@@H](CO)C(=O)N[C@@H](CCCCNC(=O)CC[C@H](NC(=O)CCCCCCCCCCCCCCCCC(=O)O)C(=O)O)C(N)=O)NC(=O)[C@H](CCCNC(=N)N)NC(=O)[C@H](Cc2c[nH]cn2)NC(=O)[C@H](CCC(=O)O)NC(=O)CNC(=O)[C@H](Cc2c[nH]c3ccccc23)NC(=O)[C@H](CC(=O)O)NC(=O)[C@H](CCC(N)=O)NC(=O)[C@H](Cc2cn(C)c3ccccc23)NC1=O` [Compound 141] (Ac-SEFCI[Trp(1-Me)]QDWGEHRC[Sar]EGESESK([γGlu-C18 diacid])-NH2; disulfide 4-14) it was less than 0.1 µM; in that of `CC[C@H](C)[C@@H]1NC(=O)[C@@H](NC(=O)[C@H](Cc2ccccc2)NC(=O)[C@H](CCC(=O)O)NC(=O)[C@H](CO)NC(C)=O)CSSC[C@@H](C(=O)N(C)CC(=O)N[C@@H](CCC(=O)O)C(=O)NCC(=O)N[C@@H](CCC(=O)O)C(=O)NCCOCCOCC(=O)N[C@@H](CCCCNC(=O)CC[C@H](NC(=O)CNC(=O)CC[C@H](NC(=O)CCCCCCCCCCCCCCCCC(=O)O)C(=O)O)C(=O)O)C(N)=O)NC(=O)[C@H](CCCNC(=N)N)NC(=O)[C@H](Cc2c[nH]cn2)NC(=O)[C@H](CCC(=O)O)NC(=O)CNC(=O)[C@H](Cc2c[nH]c3ccccc23)NC(=O)[C@H](CC(=O)O)NC(=O)[C@H](CCC(N)=O)NC(=O)[C@H](Cc2cn(C)c3ccccc23)NC1=O` [Compound 138] (Ac-SEFCI[Trp(1-Me)]QDWGEHRC[Sar]EGE[AEEA]K([γGlu-Gly-γGlu-C18 diacid])-NH2; disulfide 4-14), less than 0.1 µM; in that of `CC[C@H](C)[C@H](NC(C)=O)C(=O)N[C@H]1CSSC[C@@H](C(=O)N[C@@H](CCC(=O)O)C(N)=O)NC(=O)[C@H](CCCNC(=N)N)NC(=O)[C@H](Cc2c[nH]cn2)NC(=O)[C@H](C)NC(=O)CNC(=O)[C@H](Cc2c[nH]c3ccccc23)NC(=O)[C@H](CC(=O)O)NC(=O)[C@H](CCC(N)=O)NC(=O)[C@H](Cc2c[nH]c3ccccc23)NC(=O)[C@H]([C@@H](C)CC)NC1=O` [Compound 12] (Ac-ICIWQDWGAHRCE-NH2; disulfide 2-12), less than 0.1 µM.
The result for `CC[C@H](C)[C@H](NC(C)=O)C(=O)N[C@H]1CSSC[C@@H](C(=O)N[C@H](C(=O)N[C@@H](CCC(=O)O)C(=O)NCC(=O)N[C@@H](CCCCN)C(N)=O)[C@@H](C)O)NC(=O)[C@H](CCCNC(=N)N)NC(=O)[C@H](Cc2c[nH]cn2)NC(=O)[C@H](CCC(=O)O)NC(=O)CNC(=O)[C@H](Cc2c[nH]c3ccccc23)NC(=O)[C@H](CC(=O)O)NC(=O)[C@H](CCC(N)=O)NC(=O)[C@H](Cc2c[nH]c3ccccc23)NC(=O)[C@H]([C@@H](C)CC)NC1=O` [Compound 39] (Ac-ICIWQDWGEHRCTEGK-NH2; disulfide 2-12) reads less than 0.1 µM; that for `CC[C@H](C)[C@@H]1NC(=O)[C@@H](NC(=O)CN(C)C(=O)[C@H](CCC(=O)O)NC(=O)[C@H](CO)NC(C)=O)CSSC[C@@H](C(=O)N[C@H](C(=O)N[C@@H](CCC(=O)O)C(=O)N[C@@H](C)C(N)=O)[C@@H](C)O)NC(=O)[C@H](CCCNC(=N)N)NC(=O)[C@H](Cc2c[nH]cn2)NC(=O)[C@H](CCC(=O)O)NC(=O)CNC(=O)[C@H](Cc2c[nH]c3ccccc23)NC(=O)[C@H](CC(=O)O)NC(=O)[C@H](CCC(N)=O)NC(=O)[C@H](Cc2cn(C)c3ccccc23)NC1=O` [Compound 82] (Ac-SE[Sar]CI[Trp(1-Me)]QDWGEHRCTEA-NH2; disulfide 4-14), less than 0.1 µM.
The result for `CC[C@H](C)[C@@H]1NC(=O)[C@@H](NC(=O)[C@H](Cc2ccccc2)NC(=O)[C@H](CCC(=O)O)NC(=O)[C@H](CO)NC(C)=O)CSSC[C@@H](C(=O)N[C@H](C(=O)N[C@@H](CCC(=O)O)C(=O)NCC(=O)N[C@@H](CCC(=O)O)C(=O)NCCCCCCCC(=O)N[C@@H](CCCCNC(=O)CC[C@H](NC(=O)CNC(=O)CC[C@H](NC(=O)CCCCCCCCCCCCCCCCC(=O)O)C(=O)O)C(=O)O)C(N)=O)[C@@H](C)O)NC(=O)[C@H](CCCNC(=N)N)NC(=O)[C@H](Cc2c[nH]cn2)NC(=O)[C@H](CCC(=O)O)NC(=O)CNC(=O)[C@H](Cc2c[nH]c3ccccc23)NC(=O)[C@H](CC(=O)O)NC(=O)[C@H](CCC(N)=O)NC(=O)[C@H](Cc2cn(C)c3ccccc23)NC1=O` [Compound 136] (Ac-SEFCI[Trp(1-Me)]QDWGEHRCTEGE[Aoc]K([γGlu-Gly-γGlu-C18 diacid])-NH2; disulfide 4-14) reads less than 0.1 µM.
Turning to `CC[C@H](C)[C@@H]1NC(=O)[C@@H](NC(=O)[C@H](Cc2ccccc2)NC(=O)[C@H](CCC(=O)O)NC(=O)[C@H](CO)NC(C)=O)CSSC[C@@H](C(=O)N(C)CC(=O)N[C@@H](CCC(=O)O)C(=O)NCC(=O)N[C@@H](CCC(=O)O)C(=O)N[C@@H](CO)C(=O)N[C@@H](CCC(=O)O)C(=O)N[C@@H](CO)C(=O)N[C@@H](CCCCNC(=O)CC[C@H](NC(=O)CNC(=O)CC[C@H](NC(=O)CCCCCCCCCCCCCCCCC(=O)O)C(=O)O)C(=O)O)C(N)=O)NC(=O)[C@H](CCCNC(=N)N)NC(=O)[C@H](Cc2c[nH]cn2)NC(=O)[C@H](CCC(=O)O)NC(=O)CNC(=O)[C@H](Cc2c[nH]c3ccccc23)NC(=O)[C@H](CC(=O)O)NC(=O)[C@H](CCC(N)=O)NC(=O)[C@H](Cc2cn(C)c3ccccc23)NC1=O` [Compound 139] (Ac-SEFCI[Trp(1-Me)]QDWGEHRC[Sar]EGESESK([γGlu-Gly-γGlu-C18 diacid])-NH2; disulfide 4-14), the IC50 is less than 0.1 µM.
The result for `CC[C@H](C)[C@H](NC(=O)[C@H](C)NC(=O)[C@H](CO)NC(=O)[C@H](CO)NC(=O)[C@H](CCC(=O)O)NC(=O)CCCCCCCCCCCCCCC(=O)O)C(=O)N[C@H]1CSSC[C@@H](C(=O)N[C@H](C(=O)N[C@@H](CCC(=O)O)C(=O)NCC(=O)N[C@@H](CCC(=O)O)C(N)=O)[C@@H](C)O)NC(=O)[C@H](CCCNC(=N)N)NC(=O)[C@H](Cc2c[nH]cn2)NC(=O)[C@H](CCC(=O)O)NC(=O)CNC(=O)[C@H](Cc2c[nH]c3ccccc23)NC(=O)[C@H](CC(=O)O)NC(=O)[C@H](CCC(N)=O)NC(=O)[C@H](Cc2c[nH]c3ccccc23)NC(=O)[C@H]([C@@H](C)CC)NC1=O` [Compound 99] ({C16 diacid}-ESSAICIWQDWGEHRCTEGE-NH2; disulfide 6-16) reads less than 0.25 µM; that for `CC[C@H](C)[C@H](NC(C)=O)C(=O)N[C@H]1CSSC[C@@H](C(=O)N[C@H](C(N)=O)[C@@H](C)O)NC(=O)[C@H](CCCNC(=N)N)NC(=O)[C@H](Cc2c[nH]cn2)NC(=O)[C@H](CCC(=O)O)NC(=O)CNC(=O)[C@H](Cc2c[nH]c3ccccc23)NC(=O)[C@H](CCCCN)NC(=O)[C@H](CCC(N)=O)NC(=O)[C@H](Cc2c[nH]c3ccccc23)NC(=O)[C@H]([C@@H](C)CC)NC1=O` [Compound 7] (Ac-ICIWQKWGEHRCT-NH2; disulfide 2-12), less than 1 µM.
